Among the test systems are A498 renal; A549 NSCLC; BT-549 breast; HOP-62 NSCLC; HS 578T breast; KM12 colon; SF-268 CNS; SR leukemia; SW-620 colon; UACC-257 melanoma.
What all share (experiment): NCI-60 cell line screen, 48 h

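Dose response: 5 concentrations. Exposure: 48 h. Format: 96-well plates. Endpoint: linear interpolation; highest concentration if not reached. Abbreviation: GI50, concentration required for 50% inhibition of growth. TGI denotes the concentration required for complete inhibition of growth.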

Turning to `Cc1cc(NCCCNc2ccnc3cc(Cl)ccc23)nc(N2CCN(C)CC2)n1`, the GI50 in the experiment with A498 renal was 14.4 µM; in the experiment with A549 NSCLC it was 3.66 µM; in the experiment with BT-549 breast, 13.1 µM; with HOP-62 NSCLC it was 4.79 µM; with HS 578T breast, 12.4 µM; with KM12 colon, 3.97 µM. In addition, the GI50 in the experiment on SF-268 CNS was 6.74 µM; in the experiment with SR leukemia it was 1.81 µM; with SW-620 colon, 2.62 µM; with UACC-257 melanoma it was 1.8 µM. The TGI is 28.3 µM in the experiment with A498 renal; 16.5 µM in the experiment on A549 NSCLC; 53.3 µM in the experiment with BT-549 breast; 21 µM in the experiment on HOP-62 NSCLC; 36.9 µM with HS 578T breast; 17.1 µM with KM12 colon. Also, the TGI came out at 26.3 µM in the experiment with SF-268 CNS, 6.41 µM in the experiment with SR leukemia, 17.5 µM with SW-620 colon and 3.88 µM in the experiment with UACC-257 melanoma.

Regarding `CCOC(=O)c1sc2ncn(Cc3cccc(Br)c3)c(=O)c2c1C`, the GI50 in the experiment on A498 renal was 18.2 µM; in the experiment with A549 NSCLC, 56.2 µM; in the experiment on BT-549 breast, 28.7 µM; with HOP-62 NSCLC it was 19.4 µM; in the experiment on HS 578T breast, 38.6 µM; in the experiment on KM12 colon, 28.9 µM. For the same compound, the GI50 with SF-268 CNS was 54.9 µM; with SR leukemia it was 8.18 µM; in the experiment on SW-620 colon, 97.6 µM; with UACC-257 melanoma, 21.1 µM. Also, the TGI in the experiment on A498 renal was 80.1 µM; in the experiment on A549 NSCLC it was above 100 µM; with BT-549 breast, above 100 µM; with HOP-62 NSCLC, 65.4 µM; in the experiment on HS 578T breast it was above 100 µM; with KM12 colon, above 100 µM. Also, the TGI was above 100 µM in the experiment with SF-268 CNS, 88.7 µM with SR leukemia, above 100 µM with SW-620 colon and 84.4 µM in the experiment on UACC-257 melanoma.

As for `O=C1c2cccnc2C(=O)C2C3C=CC(C3)C12` (stereo not given), the TGI in the experiment on A498 renal turned out to be 44.7 µM; in the experiment with A549 NSCLC it was 50.8 µM; with BT-549 breast, 24 µM; in the experiment on HOP-62 NSCLC it was 20.4 µM; in the experiment on HS 578T breast it was 85.1 µM; in the experiment with KM12 colon, 32 µM. Further, the TGI in the experiment with SF-268 CNS stood at 24.3 µM; in the experiment on SR leukemia it was 6.65 µM; in the experiment with SW-620 colon it was 28.2 µM; in the experiment on UACC-257 melanoma it was 26.2 µM.
